The values below come from patent publication US9206200B2, “N-linked lactam M1 receptor positive allosteric mogulators” (Merck Sharp & Dohme Corp., priority 2011, dated 2015).

The structures appear in SMILES notation.

The target in one experiment is T1, acetylcholine muscarinic M1 receptor (Homo sapiens, UniProt P11229).
T1 construct: expressed in transfected cells; host or cells: CHOnfat cells (CHO cells with an NFAT reporter) expressing hM1, kept under Geneticin selection
T1 sequence (P11229 1-460): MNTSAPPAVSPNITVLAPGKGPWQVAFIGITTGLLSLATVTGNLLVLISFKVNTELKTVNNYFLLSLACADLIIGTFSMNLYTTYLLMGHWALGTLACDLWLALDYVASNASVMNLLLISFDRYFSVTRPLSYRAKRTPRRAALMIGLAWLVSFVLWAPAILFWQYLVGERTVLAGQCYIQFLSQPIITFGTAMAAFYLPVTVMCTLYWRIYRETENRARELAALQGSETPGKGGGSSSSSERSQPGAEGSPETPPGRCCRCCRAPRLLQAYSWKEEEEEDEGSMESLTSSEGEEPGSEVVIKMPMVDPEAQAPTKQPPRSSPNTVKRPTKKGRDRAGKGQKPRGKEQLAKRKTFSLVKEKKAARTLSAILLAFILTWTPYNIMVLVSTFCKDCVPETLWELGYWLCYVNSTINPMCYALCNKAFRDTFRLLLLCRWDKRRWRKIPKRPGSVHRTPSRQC
The experiment is described as follows: muscarinic FLIPR assay: intracellular calcium in CHOnfat/hM1 cells, potentiation of EC20 acetylcholine. It is filed as cell-based. The conditions noted are these: M1 Pot., Table 2; CHOnfat/hM1 cells, FLIPR, EC20 acetylcholine (3 nM final). The method in brief: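 CHOnfat cells stably expressing human M1, Fluo-4AM-loaded, in HBSS with 20 mM HEPES, 2.5 mM probenecid, 1% BSA. Compounds preincubated 4 min (printed "4 mM") before an EC20 acetylcholine challenge (3 nM final). FLIPR intracellular Ca²⁺ signal compared with 3 nM acetylcholine alone to detect potentiation.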
A general note: Calcium assays in cells follow changes in intracellular calcium, usually with a dye or a luminescent sensor.
In the case of `CC1CCN(Cc2cc3c(c4ncccc24)CN([C@H]2CCCC[C@@H]2O)C3=O)CC1` [Example 87, 8-[(1S,2S)-2-hydroxycyclohexyl]-5-[(4-methylpiperidin-1-yl)methyl]-8,9-dihydro-1H-pyrrolo[3,4-h]quinolin-7-one], the EC50 came to 0.2 µM.

The same experiment, now with this note: Table 2; CHOnfat/hM1 cells, FLIPR, EC20 acetylcholine (3 nM final); read-out: M1 Pot.
`O=C1c2cc(CN3CCCCC3)c3cccnc3c2CN1[C@H]1CCCC[C@@H]1O` [Example 86, 8-[(1S,2S)-2-hydroxycyclohexyl]-5-(piperidin-1-ylmethyl)-8,9-dihydro-7H-pyrrolo[3,4-h]quinolin-7-one]: the EC50 was 2.9 µM.
On the same count and under the same terms, in the case of `CCN(CC)Cc1cc2c(c3ncccc13)CN(C1CCCCC1O)C2=O` (centres unmarked) [Example 88, 5-[(diethylamino)methyl]-8-(2-hydroxycyclohexyl)-8,9-dihydro-7H-pyrrolo[3,4-h]quinolin-7-one] it was 4 µM; in that of `O=C1c2cc(CN3CCC(O)CC3)c3cccnc3c2CN1C1CCCCC1O` (centres unmarked) [Example 89, 8-(2-hydroxycyclohexyl)-5-[(4-hydroxypiperidin-1-yl)methyl]-8,9-dihydro-7H-pyrrolo[3,4-h]quinolin-7-one], 0.29 µM.
The same measure, in the same setting: then `O=C1c2cc(CN3CCC(C4CC4)CC3)c3cccnc3c2CN1C1CCCCC1O` (centres unmarked) [Example 90, 5-[(4-cyclopropylpiperidin-1-yl)methyl]-8-(2-hydroxycyclohexyl)-8,9-dihydro-7H-pyrrolo[3,4-h]quinolin-7-one], with 1.2 µM; and `O=C1c2cc(CN3CCC(F)CC3)c3cccnc3c2CN1C1CCCCC1O` (centres unmarked) [Example 91, 5-[(4-fluoropiperidin-1-yl)methyl]-8-(2-hydroxycyclohexyl)-8,9-dihydro-7H-pyrrolo[3,4-h]quinolin-7-one], with 0.088 µM; and `N#CC1CCN(Cc2cc3c(c4ncccc24)CN([C@H]2CCCC[C@@H]2O)C3=O)CC1` [Example 92, 1-({8-[(1S,2S)-2-hydroxycyclohexyl]-7-oxo-8,9-dihydro-7H-pyrrolo[3,4-h]quinolin-5-yl}methyl)piperidine-4-carbonitrile], with 0.072 µM.
On the same count and under the same terms, then `CC1c2c(cc(CN3CCC(F)CC3)c3cccnc23)C(=O)N1[C@H]1CCCC[C@@H]1O` (stereo partly drawn) [Example 93, 5-[(4-fluoropiperidin-1-yl)methyl]-8-[(1S,2S)-2-hydroxycyclohexyl]-9-methyl-8,9-dihydro-7H-pyrrolo[3,4-h]quinolin-7-one], with 0.07 µM; and `N#CC1CCN(Cc2cc3c(c4ncccc24)CN([C@H]2CCCC[C@@H]2O)C3=O)CC1` [Example 94, 1-({8-[(1S,2S)-2-hydroxycyclohexyl]-7-oxo-8,9-dihydro-7H-pyrrolo[3,4-h]quinolin-5-yl}methyl)piperidine-4-carbonitrile], with 0.051 µM.
`O=C1c2cc(CN3CCC4(CC3)COc3ccccc34)c3cccnc3c2CN1C1CCCCC1O` (centres unmarked) [Example 95, 8-(2-hydroxycyclohexyl)-5-(1′H-spiro[1-benzofuran-3,4′-piperidin]-1′-ylmethyl)-8,9-dihydro-7H-pyrrolo[3,4-h]quinolin-7-one]: the EC50 came to 0.29 µM.
For the compound `O=C1c2cc(CN3CCCC3)c3cccnc3c2CN1C1CCCCC1O` (centres unmarked) [Example 97, 8-(2-hydroxycyclohexyl)-5-(pyrrolidin-1-ylmethyl)-8,9-dihydro-7H-pyrrolo[3,4-h]quinolin-7-one], the EC50 came to 5.2 µM.
Still for that read-out and setting: then `O=C1c2cc(CN3CCC(F)(F)C3)c3cccnc3c2CN1C1CCCCC1O` (centres unmarked) [Example 98, 5-[(3,3-difluoropyrrolidin-1-yl)methyl]-8-(2-hydroxycyclohexyl)-8,9-dihydro-7H-pyrrolo[3,4-h]quinolin-7-one], with 0.151 µM.
The same measure, in the same setting: in the case of `O=C1c2cc(CN3CCOCC3)c3cccnc3c2CN1C1CCCCC1O` (centres unmarked) [Example 99, 8-(2-hydroxycyclohexyl)-5-(morpholin-4-ylmethyl)-8,9-dihydro-7H-pyrrolo[3,4-h]quinolin-7-one] it was 0.15 µM.
Same read-out and setting: in the case of `CC1(C)CCN(Cc2cc3c(c4ncccc24)CN(C2CCCCC2O)C3=O)CC1` (centres unmarked) [Example 100, 5-[(4,4-dimethylpiperidin-1-yl)methyl]-8-(2-hydroxycyclohexyl)-8,9-dihydro-7H-pyrrolo[3,4-h]quinolin-7-one] it was 0.43 µM; in that of `CC1(O)CCN(Cc2cc3c(c4ncccc24)CN(C2CCCCC2O)C3=O)CC1` (centres unmarked) [Example 101, 8-(2-hydroxycyclohexyl)-5-[(4-hydroxy-4-methylpiperidin-1-yl)methyl]-8,9-dihydro-7H-pyrrolo[3,4-h]quinolin-7-one], 0.93 µM.
Regarding `CC1(F)CCN(Cc2cc3c(c4ncccc24)CN([C@H]2CCCC[C@@H]2O)C3=O)CC1` [Example 102, 5-[(4-fluoro-4-methylpiperidin-1-yl)methyl]-8-[(1S,2S)-2-hydroxycyclohexyl]-8,9-dihydro-7H-pyrrolo[3,4-h]quinolin-7-one], the EC50 turned out to be 0.25 µM.
Same read-out and setting: in the case of `C#CC1(F)CCN(Cc2cc3c(c4ncccc24)CN([C@H]2CCCC[C@@H]2O)C3=O)CC1` [Example 103, 5-[(4-ethynyl-4-fluoropiperidin-1-yl)methyl]-8-[(1S,2S)-2-hydroxycyclohexyl]-8,9-dihydro-7H-pyrrolo[3,4-h]quinolin-7-one] it was 0.011 µM.
Regarding `CC1c2c(cc(CN3CCC(F)(F)CC3)c3cccnc23)C(=O)N1[C@@H]1CCCC[C@@H]1O` (stereo partly drawn) [Example 104, 5-[(4,4-difluoropiperidin-1-yl)methyl]-8-[(1R,2S)-2-hydroxycyclohexyl]-9-methyl-8,9-dihydro-7H-pyrrolo[3,4-h]quinolin-7-one], the EC50 was 0.015 µM.
Same read-out and setting: in the case of `CCC1c2c(cc(CN3CCC(F)(F)CC3)c3cccnc23)C(=O)N1[C@@H]1CCCC[C@@H]1O` (stereo partly drawn) [Example 105, 5-[(4,4-difluoropiperidin-1-yl)methyl]-9-ethyl-8-[(1R,2S)-2-hydroxycyclohexyl]-8,9-dihydro-7H-pyrrolo[3,4-h]quinolin-7-one] it was 0.0099 µM; in that of `CC1c2c(cc(CN3CCC(F)(F)CC3)c3cccnc23)C(=O)N1[C@@H]1COCC[C@@H]1O` (stereo partly drawn) [Example 106, 1,5-anhydro-2,4-dideoxy-4-{5-[(4,4-difluoropiperidin-1-yl)methyl]-9-methyl-7-oxo-7,9-dihydro-8H-pyrrolo[3,4-h]quinolin-8-yl}-D-erythro-pentitol], 0.11 µM; in that of `CC1c2c(cc(CN3CCC(F)(F)CC3)c3cccnc23)C(=O)N1[C@@H]1CCOC[C@@H]1O` (stereo partly drawn) [Example 107, 1,5-anhydro-3,4-dideoxy-3-{5-[(4,4-difluoropiperidin-1-yl)methyl]-9-methyl-7-oxo-7,9-dihydro-8H-pyrrolo[3,4-h]quinolin-8-yl}-D-erythro-pentitol], 0.012 µM.
Same read-out and setting: in the case of `O=C1c2cc(CN3CCC(F)(F)CC3)c3cccnc3c2CN1C1CCCCC1O` (centres unmarked) [Example 116, 5-[(4,4-difluoropiperidin-1-yl)methyl]-8-(2-hydroxycyclohexyl)-8,9-dihydro-7H-pyrrolo[3,4-h]quinolin-7-one] it was 0.021 µM; in that of `N#CC1(F)CCN(Cc2cc3c(c4ncccc24)CN([C@H]2CCCC[C@@H]2O)C3=O)CC1` [Example 117, 4-fluoro-1-({8-[(1S,2S)-2-hydroxycyclohexyl]-7-oxo-8,9-dihydro-7H-pyrrolo[3,4-h]quinolin-5-yl}methyl)piperidine-4-carbonitrile], 0.038 µM.
Take `CCC1c2c(cc(CN3CCC(F)(C#N)CC3)c3cccnc23)C(=O)N1[C@@H]1CCCC[C@@H]1O` (stereo partly drawn) [Example 120, 1-({9-ethyl-8-[(1R,2S)-2-hydroxycyclohexyl]-7-oxo-8,9-dihydro-7H-pyrrolo[3,4-h]quinolin-5-yl}methyl)-4-fluoropiperidine-4-carbonitrile]: the EC50 worked out at 0.021 µM.
Consider `O=C1c2cc(CN3CCCC(F)C3)c3cccnc3c2CN1C1CCCCC1O` (centres unmarked) [Example 121, 5-[(3-fluoropiperidin-1-yl)methyl]-8-(2-hydroxycyclohexyl)-8,9-dihydro-7H-pyrrolo[3,4-h]quinolin-7-one], for which the EC50 was determined as 0.108 µM.
On the same count and under the same terms, then `O=C1c2cc(CN3CCCC(F)(F)C3)c3cccnc3c2CN1C1CCCCC1O` (centres unmarked) [Example 122, 5-[(3,3-difluoropiperidin-1-yl)methyl]-8-(2-hydroxycyclohexyl)-8,9-dihydro-7H-pyrrolo[3,4-h]quinolin-7-one], with 0.086 µM; and `O=C1c2cc(CN3CCC(C(F)(F)F)CC3)c3cccnc3c2CN1C1CCCCC1O` (centres unmarked) [Example 123, 8-(2-hydroxycyclohexyl)-5-{[4-(trifluoromethyl)piperidin-1-yl]methyl}-8,9-dihydro-7H-pyrrolo[3,4-h]quinolin-7-one], with 0.097 µM.
The same measure, in the same setting: then `C#CC1CCN(Cc2cc3c(c4ncccc24)CN(C2CCCCC2O)C3=O)CC1` (centres unmarked) [Example 124, 5-[(4-ethynylpiperidin-1-yl)methyl]-8-(2-hydroxycyclohexyl)-8,9-dihydro-7H-pyrrolo[3,4-h]quinolin-7-one], with 0.044 µM.
For `CCCC#CC1(F)CCN(Cc2cc3c(c4ncccc24)CN([C@H]2CCCC[C@@H]2O)C3=O)CC1` [Example 125, 5-[(4-fluoro-4-pent-1-yn-1-ylpiperidin-1-yl)methyl]-8-[(1S,2S)-2-hydroxycyclohexyl]-8,9-dihydro-7H-pyrrolo[3,4-h]quinolin-7-one], the EC50 came out at 0.13 µM.
